Test results taken from patent publication US9913914B2, “Cell transport” (priority 2013, dated 2018).
No end group written: not given here. *: point of attachment. FITC = O=C1OC2(c3ccc(O)cc3Oc3cc(O)ccc32)c2ccc(NC(=S)*)cc21

How the values were obtained:
[1] = system: PKA-dependent process of Dictyostelium aggregation; assay: Aggregation of starved Dictyostelium cultures (PKA-dependent); assay type: cell-based, Dictyostelium discoideum; details: 10 micromolar
Method: FIG. 6. Cupid can transport small molecule cargo into cells. Starved Dictyostelium cultures were treated with no peptide (A), cupid B peptide (B), PKI peptide (C) and Cupid B-PKI peptide (D) and analysed for aggregation.
Upon starvation Dictyostelium initiates a developmental program leading to the aggregation of free-living amoebae. Genetic research has uncovered the crucial role that cyclic adenosine monophosphate (cAMP) plays in orchestrating as an extracellular chemoattractant in the initial aggregation process through Dictyostelium cAMP-dependent Protein Kinase (DdPKA). DdPKA can be inhibited by PKI, a 20 amino acid peptide sequence derived from an inhibitor of PKA, by PKI binding directly to the catalytic unit of PKA.
By creating a Cupid B-PKI fusion protein we aimed to establish that it prevents starving Dictyostelium cells from aggregating in vivo.

[2] = system: Dictyostelium discoideum amoeba cells; assay type: cell-based; details: for entry of fluorescently labeled peptide into cells: 10 μM, 1 hour, Dictyostelium cell; for time for half-maximal permeation: FITC-labelled peptide at 20 micromolar, Dictyostelium cells
Method: (§1) Peptides were labelled with Fluorescein isothiocyanate (FITC) using a FITC labeling kit as per instructions (Pierce, UK). When added to cell cultures the labeled peptides were visualized using a fluorescent microscope by exciting the FITC with a 488 nm spectral line, argon-ion laser (Excitation wavelength of 494 nm and an Emission wavelength of 518 nm).
AX2 wild type Dictyostelium cells were grown on SM agar plates seeded with Aerobacter aerogenes bacteria (also known as Klebsiella aerogenes) as a food source.
Cupid A ([…]; SEQ ID NO: 2) and Cupid B ([…]; SEQ ID NO: 1) were chemically synthesized labelled with FITC at the amino terminal. The peptides were added to cultured eukaryotic cells of Dictyostelium discoideum amoeba for varying amounts of time up to 2 hours. Cells were then washed and prepared for examination under a fluorescent microscope (FIG. 1). The time courses of permeation were compared to the class 3 CPP, the Antennapedia peptide, pANT which was also labelled with FITC in chemical synthesis (FIG. 2).

human fibroblasts = assay: Permeation of FITC-labelled peptide into human fibroblasts; assay type: cell-based; details: 10 μM, 1 hour, Human Fibroblast cell
Excerpt: as §1

[3] = system: human embryonic kidney cells; assay: Permeation of FITC-labelled peptide into human embryonic kidney cells; assay type: cell-based; details: 10 μM, 1 hour, human kidney cell
Excerpt: as §1

Substance	effect on Dictyostelium aggregation [1]	entry of fluorescently labeled peptide into cells [2]	time for half-maximal permeation [2]	entry of fluorescently labeled peptide into cells (human fibroblasts)	reversibility of permeation ([2]; media containing FITC-peptide replaced with peptide-free media)	entry of fluorescently labeled peptide into cells [3]
Cupid B peptide: RRVQIWFQNKRAKVKR (SEQ ID NO: 1), cell penetrating peptide from Dictyostelium discoideum (listed as Dictyostelium discoideum)	neither the Cupid B peptide nor the PKI peptide alone have any effect on aggregation	–	–	–	–	–
FITC-Cupid A: Cupid A (SEQ ID NO: 2) chemically synthesized, labelled with FITC at the amino terminal ({FITC}-RSVQIWFQNRRAKAR; listed as Dictyostelium discoideum)	–	entering cultured cells	28 min	–	–	–
FITC-Cupid B: Cupid B (SEQ ID NO: 1) chemically synthesized, labelled with FITC at the amino terminal ({FITC}-RRVQIWFQNKRAKVKR; listed as Dictyostelium discoideum)	–	entering cultured cells	17 min	entering cultured cells	reversible	entering cultured cells
